# Test results from the supplement of paper PMC7801607.
# Tests used:
# [1] = test system: Plasmodium falciparum Dd2 asexual blood stage
# [2] = test system: Plasmodium falciparum NF54 asexual blood stage
IC50 [1],IC50 [2],SMILES
> 5 µM,5.04 µM,Oc1c(C(Nc2ccccn2)c2ccccc2)ccc2cccnc12 (stereo unspecified)
> 5 µM,> 6 µM,Cc1oncc1C(=O)Nc1ccc(C(F)(F)F)cc1
> 5 µM,> 6 µM,CCCCc1ccc(S(=O)(=O)Nc2cc(C)on2)cc1
> 5 µM,> 6 µM,CCC[C@@H]1C[C@@H](C(=O)N[C@@H]([C@H]2O[C@H](SC)[C@H](O)[C@@H](O)[C@H]2O)[C@H](C)Cl)N(C)C1
> 5 µM,2.3 µM,Nc1nc(F)nc2c1ncn2[C@H]1O[C@@H](CO)[C@H](O)[C@@H]1O
> 5 µM,0.703 µM,CCc1nc(N)nc(N)c1C#CCc1ccccc1
> 5 µM,> 6 µM,CCCCCc1ccc(C(=O)NCCn2cc(CCCCCc3cnc(N)[nH]3)nn2)cc1
> 5 µM,0.687 µM,O=[N+]([O-])c1ccc2c(CCc3c[nH]c4ccccc34)c[nH]c2c1
> 5 µM,5.7 µM,NC1C2CC3CC(C2)CC1C3 (stereo unspecified)
> 5 µM,> 6 µM,Cc1c(OCC(F)(F)F)ccnc1CS(=O)c1nc2ccccc2[nH]1 (stereo unspecified)
> 5 µM,2.12 µM,O=C(c1ccccc1)N1CCN(c2ccccc2NC(=O)C(Cl)(Cl)Cl)CC1
> 5 µM,> 6 µM,CC(C)Cn1c(=O)n(C)c(=O)c2c(-c3cncn3C)n(Cc3cccc4ccccc34)nc21
4.6 µM,–,CC(C)(C)c1ccc(C(Cn2cccc(C(F)(F)F)c2=O)NC2Cc3ccccc3C2)cc1 (stereo unspecified)
> 5 µM,–,O=C(O)[C@H]1C2CCC(CC2)[C@@H]1Nc1nc(-c2c[nH]c3ncc(F)cc23)ncc1F
> 5 µM,–,OC(Cn1cncn1)(Cn1cncn1)c1ccc(F)cc1F
> 5 µM,–,c1cnc(NCc2ccc(CNc3ncccn3)cc2)nc1
> 5 µM,–,CN1c2ccc(Cl)cc2N(c2ccccc2)C(=O)c2cn(Cc3ccc(CN4CCOCC4)cc3)nc21
> 5 µM,–,Oc1cc(-c2cccc3ccccc23)[nH]n1
4.1 µM,–,Nc1nc(-c2ccccc2)nc2[nH]nc(Nc3ccc(C(F)(F)F)cc3)c12

IC50 [1],IC50 [2],SMILES
> 5 µM,–,CCOC(=O)/C=C/[C@H](C[C@@H]1CCNC1=O)NC(=O)[C@@H](CC(=O)[C@@H](NC(=O)c1cc(C)on1)C(C)C)Cc1ccc(F)cc1
> 5 µM,–,COc1ccccc1NC(=O)c1ccccc1Sc1ccc([N+](=O)[O-])cc1
> 5 µM,–,O=S(=O)(Nc1ccc(-n2cccc2)cc1)c1ccc(Cl)c(Cl)c1
> 5 µM,–,COC(=O)Nc1nc2cc(S(=O)c3ccccc3)ccc2[nH]1 (stereo unspecified)
> 5 µM,–,Cc1cc(O)c2c(c1)C(=O)c1c(I)c(O)c(I)c(O)c1C2=O
> 5 µM,–,COc1cc(C(C(=O)NC2CCCCC2)N(C(=O)Cc2c[nH]c3ccccc23)c2ccc(C(C)C)cc2)cc(OC)c1OC (stereo unspecified)
> 5 µM,–,N#Cc1cc([N+](=O)[O-])ccc1Oc1ccccc1Cl
> 5 µM,–,Nc1nc2c(Cc3cccnc3)c[nH]c2c(=O)[nH]1
> 5 µM,–,O=C(CC1Sc2ncnn2C1=O)Nc1ccc(Br)cc1 (stereo unspecified)
> 5 µM,–,CCCC(=O)OCCc1ccccc1
> 5 µM,–,CC(=O)N1c2ccccc2NC2=C(C(=O)CC(C)(C)C2)C1c1ccc(OCc2ccccc2)cc1 (stereo unspecified)
4.88 µM,–,CCCCCCCc1[nH]c2ccccc2c(=O)c1O
> 5 µM,–,CC[C@H]1OC(=O)[C@H](C)[C@@H](O[C@H]2C[C@@](C)(OC)[C@@H](O)[C@H](C)O2)[C@H](C)[C@@H](O[C@@H]2O[C@H](C)C[C@H](N(C)C)[C@H]2O)[C@](C)(O)C[C@@H](C)C(=O)[C@H](C)[C@@H](O)[C@]1(C)O
> 5 µM,–,Cc1onc(-c2ccccc2Cl)c1C(=O)N[C@@H]1C(=O)N2[C@@H]1SC(C)(C)[C@@H]2C(=O)O
> 5 µM,–,O=C(N[C@H](Cc1cccc2ccccc12)C(=O)NCCc1c[nH]cn1)C1Cc2ccccc2C1
> 5 µM,–,C[C@@H]1O[C@@H]1P(=O)(O)O
> 5 µM,–,CN(C)CCNC(=O)c1cccc2cccnc12
> 5 µM,–,Nc1nc(O)c2ncn(COCCO)c2n1

# More lines, now with the values behind:
SMILES,IC50 [1],IC50 [2]
OC1O[C@H](CSc2ccc(F)cc2)[C@@H](O)[C@H]1O (stereo partly specified),> 5 µM,0.825 µM
CC(C)(C)NC(=O)[C@@H]1CN(Cc2cnc3occc3c2)CCN1C[C@@H](O)C[C@@H](Cc1ccccc1)C(=O)N[C@H]1c2ccccc2C[C@H]1O,2.29 µM,2.85 µM
Nc1cc(N)c2nc(-c3ccccc3)c(Nc3ccc(F)cc3)nc2c1,4.09 µM,2.16 µM
CC(C)Nc1nc2cc(Cl)c(Cl)cc2n1[C@H]1O[C@@H](CO)[C@H](O)[C@@H]1O,> 5 µM,> 6 µM
Cc1ccc(NC(=O)c2ccc(CN3CCN(C)CC3)cc2)cc1Nc1nccc(-c2cccnc2)n1,> 5 µM,2.55 µM
CC1CN(c2ncnc3c2c(-c2ccccc2)cn3-c2ccc(F)cc2)CC(C)O1 (stereo unspecified),> 5 µM,1.58 µM
Cn1cncc1[C@@](N)(c1ccc(Cl)cc1)c1ccc2c(c1)c(-c1cccc(Cl)c1)cc(=O)n2C,> 5 µM,3.65 µM
Nc1cnn(C2OC(CO)C(O)C2O)c(=O)n1 (stereo unspecified),> 5 µM,> 6 µM
Cc1ccc(NC(=O)c2cc(Cl)ccc2O)cc1,> 5 µM,> 6 µM
O=C(Nc1nnc(-c2ccccc2)o1)c1ccc(F)cc1,> 5 µM,0.472 µM
COc1ccc(CNC(=O)C2CCN([C@H](C)c3cccc4ccccc34)CC2)cc1,> 5 µM,> 6 µM
CC1CCc2c(N3CCC(O)CC3)c(F)cc3c(=O)c(C(=O)O)cn1c23 (stereo unspecified),> 5 µM,> 6 µM
O=C(Nc1ccc(N2CCN(C(=O)c3ccccc3)CC2)cc1)c1ccc2c(c1)OCO2,> 5 µM,> 6 µM
C=C[C@]1(C)C[C@@H](OC(=O)CS[C@@H]2C[C@H]3CC[C@@H](C2)N3C)[C@]2(C)[C@H](C)CC[C@]3(CCC(=O)[C@H]32)[C@@H](C)[C@@H]1O,> 5 µM,> 6 µM
COc1ccc(SC(=O)N[C@H](CCC(=O)O)C(=O)O)cc1,> 5 µM,> 6 µM
COc1ccc2cc3[n+](cc2c1OCCN(CCn1cncn1)Cc1ccc(F)cc1F)CCc1cc2c(cc1-3)OCO2,> 5 µM,0.138 µM
CCc1cc(O)c(Oc2ccc(C(N)=O)cc2F)cc1F,> 5 µM,5.84 µM
CCCCc1ccc(C(=O)O)nc1,> 5 µM,> 6 µM
CN(C)[C@@H]1C(=O)C(C(N)=O)=C(O)[C@@]2(O)C(=O)C3=C(O)c4c(O)c(NC(=O)CN5CCCC5)cc(F)c4C[C@H]3C[C@@H]12,> 5 µM,1.5 µM
O=C(Nc1nnc(-c2ccc(Cl)cc2)o1)c1nc2ccccc2s1,> 5 µM,> 6 µM
Cc1ccc(S(=O)(=O)Nc2cccc3cccnc23)cc1,> 5 µM,5.1 µM
COc1ccc2nc(-c3ccccc3)cc(O)c2c1,1.01 µM,1.78 µM
O=C(O)CSc1cc(NS(=O)(=O)c2cccc3cccnc23)c2ccccc2c1O,> 5 µM,2.57 µM
O=C(CP(=O)(O)O)NCCc1cccc(Oc2ccccc2)c1,> 5 µM,–
CONC(=N)c1ccc(-c2ccc(-c3ccc(C(=N)NOC)cc3)o2)cc1,> 5 µM,–
N=C(N)c1ccc(COc2ccc(Cl)cc2)cc1,> 5 µM,–
OCCCCn1cnc2c(O)nc(NCc3ccc(Cl)c(Cl)c3)nc21,> 5 µM,–

SMILES,IC50 [1],IC50 [2]
CNCC(=O)OCc1cccnc1N(C)C(=O)OC(C)[n+]1cnn(C[C@](O)(c2cc(F)ccc2F)[C@@H](C)c2nc(-c3ccc(C#N)cc3)cs2)c1 (stereo partly specified),> 5 µM,–
CCc1ccccc1OCCN1CCCCCC1,> 5 µM,–
O=C(NNC(=S)Nc1ccc(Cl)cc1)c1ccncc1,> 5 µM,–
CN(C(=O)C1(c2ccc(Cl)cc2)CCC1)c1ccccc1,> 5 µM,–
O=C(Nc1nnc(-c2ccc(Cl)cc2)o1)c1ccc(F)cc1,> 5 µM,–
Cc1cc(C2CCCCC2)n(O)c(=O)c1,4.8 µM,–
O=[N+]([O-])/C(Br)=C/c1ccc(Br)o1,> 5 µM,–
CC(C)(C)c1ccc(C(=O)NC(=O)N2CCCc3ccccc32)cc1,> 5 µM,–
Cc1cc(C)n(O)c(=O)c1,> 5 µM,–
CC(C)(C)c1cccc(-c2nc3cc(C(=N)N)ccc3[nH]2)c1O,> 5 µM,–
NC(=O)C(c1ccccc1)(c1ccccc1)[C@H]1CCCN(CCc2ccc3c(c2)CCO3)C1,> 5 µM,–
COc1cccc(N2CCN(C3=Nc4c(F)cccc4[C@H](CC(=O)O)N3c3cc(C(F)(F)F)ccc3OC)CC2)c1,> 5 µM,–
O=C(NC(=O)N1CCCc2ccccc21)c1ccc(Cl)cc1Cl,> 5 µM,–
C=CCc1cc(Cc2cnc(N)nc2N)cc(OC)c1O,> 5 µM,–
C[C@H]1CC[C@]2(NC1)O[C@H]1C[C@H]3[C@@H]4CC[C@H]5C[C@@H](O)CC[C@]5(C)[C@H]4CC[C@]3(C)[C@H]1[C@@H]2C,> 5 µM,–
CNc1nc(=O)[nH]cc1F,> 5 µM,–
O=c1nc(N2CCN(CC3CCCCC3)CC2)sc2c([N+](=O)[O-])cc(C(F)(F)F)cc12,> 5 µM,–
C[C@H]1[C@@H](c2cccc(C(F)(F)F)c2)OC(=O)N1C(=O)NCc1cncc2ccccc12,> 5 µM,–
COc1c(F)c(F)cc2c(=O)c(C(=O)O)cn(C3CC3)c12,> 5 µM,–
Cc1onc(-c2ccccc2)c1-c1ccc(S(N)(=O)=O)cc1,> 5 µM,–
O=C(O)COc1cccc2c1CC[C@](O)(COC(=O)N(c1ccccc1)c1ccccc1)C2,> 5 µM,–
CC(Cc1ccccc1)C(=O)Nc1ccc(Cl)cc1C(=O)O (stereo unspecified),> 5 µM,–
Nc1nc2c(ncn2/C=C2/CC2(CO)CO)c(=O)[nH]1,> 5 µM,–
O[C@@](Cn1cnnn1)(c1ccc(F)cc1F)C(F)(F)c1ccc(-c2ccc(OCC(F)(F)F)cc2)cn1,> 5 µM,–
O=C(c1cc(O)nc2ccccc12)N1CCN(c2ccccc2)CC1,> 5 µM,–
Cc1ccccc1NC(=O)Nc1cccc([N+](=O)[O-])c1,> 5 µM,–
O=C(O)c1sccc1S(=O)(=O)n1ccc2cc(Br)ccc21,> 5 µM,–
